Each block holds one compound with its values, some of them ahead of it. Active and inactive are the calls of the source. The rule behind the calls is not given here.
Key:
[1] = Inhibition of HIF-1 (unknown origin) expressed in human HeLa cells after 12 hrs by HRE luciferase reporter gene assay; assay type: cell-based
NCI-H226 = experiment: Growth inhibition of human NCI-H226 cells by SRB assay; assay type: functional
Mus musculus [2] = experiment: In vivo inhibition of HIF1 transcriptional activity in nude mouse xenografted with human SUIT2/HRE-luc cells at 10 mg/kg, ip measured after 24 hrs by bioluminescence assay; assay type: functional, organism-based; design: dose 10 mg/kg
[3] = Growth inhibition of human RXF631L cells by SRB assay; assay type: functional; conditions: for GI50: RXF 631
[4] = Drug uptake in granular vesicle of human MKN1 cells azide-Alexa 488-based fluorescent microscopy; assay type: ADME, cell-based; conditions: mkn-1
[5] = Drug uptake in granular vesicle of human NCI-H226 cells azide-Alexa 488-based fluorescent microscopy; assay type: ADME, cell-based
[6] = Drug uptake in nucleus of human RXF631L cells azide-Alexa 488-based fluorescent microscopy; assay type: ADME
[7] = Drug uptake in cytoplasm of human NCI-H226 cells azide-Alexa 488-based fluorescent microscopy; assay type: ADME, cell-based
[8] = Drug uptake in nucleus of human NCI-H226 cells azide-Alexa 488-based fluorescent microscopy; assay type: ADME, cell-based
[9] = Drug uptake in granular vesicle of human RXF631L cells azide-Alexa 488-based fluorescent microscopy; assay type: ADME
[10] = Drug uptake in cytoplasm of human RXF631L cells azide-Alexa 488-based fluorescent microscopy; assay type: ADME
[11] = Growth inhibition of human MKN1 cells by SRB assay; assay type: functional; conditions: MKN-1, read-out: pGI50 (converted)
[12] = Growth inhibition of human DMS114 cells by SRB assay; assay type: functional; conditions: DMS-114
ACHN = experiment: Growth inhibition of human ACHN cells by SRB assay; assay type: functional
[13] = Growth inhibition of human OVCAR3 cells by SRB assay; assay type: functional; conditions: OVCAR-3
[14] = Growth inhibition of human HCT15 cells by SRB assay; assay type: functional; conditions: HCT-15
NCI-H522 = experiment: Growth inhibition of human NCI-H522 cells by SRB assay; assay type: functional
[15] = Growth inhibition of human MKN74 cells by SRB assay; assay type: functional; conditions: MKN-74, read-out: pGI50 (converted)
[16] = Growth inhibition of human LOXIMVI cells by SRB assay; assay type: functional; conditions: LOX IMVI
[17] = Growth inhibition of human OVCAR5 cells by SRB assay; assay type: functional; conditions: OVCAR-5
MDA-MB-231 = experiment: Growth inhibition of human MDA-MB-231 cells by SRB assay; assay type: functional
A549 = experiment: Growth inhibition of human A549 cells by SRB assay; assay type: functional
[18] = Growth inhibition of human OVCAR4 cells by SRB assay; assay type: functional; conditions: OVCAR-4, read-out: pGI50 (converted)
[19] = Growth inhibition of human MKN45 cells by SRB assay; assay type: functional; conditions: MKN-45
[20] = Growth inhibition of human HBC4 cells by SRB assay; assay type: functional; conditions: HBC4, read-out: pGI50 (converted)
[21] = Growth inhibition of human DMS273 cells by SRB assay; assay type: functional; conditions: DMS-273
SK-OV-3 = experiment: Growth inhibition of human SKOV3 cells by SRB assay; assay type: functional
HCT-116 = experiment: Growth inhibition of human HCT116 cells by SRB assay; assay type: functional
HT-29 = experiment: Growth inhibition of human HT-29 cells by SRB assay; assay type: functional; conditions: HT-29, read-out: pGI50 (converted)
[22] = Growth inhibition of human HCC2998 cells by SRB assay; assay type: functional; conditions: HCC 2998, read-out: pGI50 (converted)
MCF7 = experiment: Growth inhibition of human MCF7 cells by SRB assay; assay type: functional
NCI-H460 = experiment: Growth inhibition of human NCI-H460 cells by SRB assay; assay type: functional
[23] = Growth inhibition of human OVCAR8 cells by SRB assay; assay type: functional; conditions: OVCAR-8
KM12 = experiment: Growth inhibition of human KM12 cells by SRB assay; assay type: functional
[24] = Growth inhibition of human HBC5 cells by SRB assay; assay type: functional
[25] = Growth inhibition of human SF295 cells by SRB assay; assay type: functional; conditions: SF-295
U-251 = experiment: Growth inhibition of human U251 cells by SRB assay; assay type: functional
SNB-75 = experiment: Growth inhibition of human SNB75 cells by SRB assay; assay type: functional; conditions: SNB-75, read-out: pGI50 (converted)
SF-268 = experiment: Growth inhibition of human SF268 cells by SRB assay; assay type: functional; conditions: SF-268, read-out: pGI50 (converted)
DU-145 = experiment: Growth inhibition of human DU145 cells by SRB assay; assay type: functional; conditions: DU-145, read-out: pGI50 (converted)
PC-3 = experiment: Growth inhibition of human PC3 cells by SRB assay; assay type: functional
[26] = Growth inhibition of human BSY1 cells by SRB assay; assay type: functional; conditions: BSY-1
[27] = Growth inhibition of human MKN7 cells by SRB assay; assay type: functional; conditions: MKN-7
NCI-H23 = experiment: Growth inhibition of human NCI-H23 cells by SRB assay; assay type: functional; conditions: NCI-H23, read-out: pGI50 (converted)
St-4 = experiment: Growth inhibition of human St-4 cells by SRB assay; assay type: functional; conditions: St-4, read-out: pGI50 (converted)
[28] = Growth inhibition of human MKN28 cells by SRB assay; assay type: functional; conditions: MKN-28
Mus musculus [29] = experiment: In vivo inhibition of HIF1 transcriptional activity in nude mouse xenografted with human SUIT2/HRE-luc cells at 10 mg/kg, ip measured after 12 hrs by bioluminescence assay; assay type: functional, organism-based; design: dose 10 mg/kg
[30] = Growth inhibition of human SNB78 cells by SRB assay; assay type: functional; conditions: SNB-78, read-out: pGI50 (converted)
[31] = Growth inhibition of human SF539 cells by SRB assay; assay type: functional; conditions: SF-539, read-out: pGI50 (converted)

SMILES: C#CC(O)c1ccc(-c2nn(Cc3ccccc3)c3ccccc23)o1 (centres undefined)
IC50 [1]: > 30 µM

SMILES: OCc1ccc(-c2nn(Cc3ccccc3C(F)(F)F)c3ccccc23)o1
IC50 [1]: 13.9 µM

SMILES: OCc1ccc(-c2nn(Cc3ccccc3)c3ccccc23)o1
IC50 [1]: 2 µM
GI50 (NCI-H226): 0.224 µM
CC50 (NCI-H226; read-out: pLC50 (the source's name) (converted)): 9.77 µM
TGI (NCI-H226; read-out: pTGI (converted)): 0.661 µM
inhibition (Mus musculus [2]): inactive
GI50 [3]: 0.158 µM
TGI ([3]; RXF 631, read-out: pTGI (converted)): 0.525 µM

SMILES: [N-]=[N+]=Nc1ccc(Cn2nc(-c3ccc(CO)o3)c3ccccc32)cc1
IC50 [1]: 1.24 µM

SMILES: C#CCOCc1ccc(-c2nn(Cc3ccccc3)c3ccccc23)o1
IC50 [1]: 7 µM

SMILES: COc1ccc(Cn2nc(-c3ccc(CO)o3)c3ccccc32)cc1
IC50 [1]: 0.97 µM

SMILES: OCc1ccc(-c2nn(Cc3ccc(C(F)(F)F)cc3)c3ccccc23)o1
IC50 [1]: 9.4 µM

SMILES: OCc1ccc(-c2nn(Cc3ccc(Cl)cc3)c3ccccc23)o1
IC50 [1]: 2.8 µM

SMILES: O=Cc1ccc(-c2nn(Cc3ccccc3)c3ccccc23)o1
IC50 [1]: 9 µM

SMILES: OCc1ccc(-c2nn(Cc3ccc(-c4ccccc4)cc3)c3ccccc23)o1
IC50 [1]: 3.3 µM

Compounds with a lower IC50 [1], results first:

IC50 [1]: 0.53 µM
SMILES: OCc1ccc(-c2nn(Cc3ccc(F)cc3)c3ccccc23)o1

IC50 [1]: 0.48 µM
SMILES: OCc1ccc(-c2nn(Cc3cccc(F)c3)c3ccccc23)o1

IC50 [1]: 0.18 µM
SMILES: OCc1ccc(-c2nn(Cc3c(F)c(F)c(F)c(F)c3F)c3ccccc23)o1

Drug uptake [4]: Active
IC50 [1]: 0.61 µM
Drug uptake [5]: Not Active
Drug uptake [6]: Active
Drug uptake [7]: Active
Drug uptake [8]: Active
Drug uptake [9]: Active
Drug uptake [10]: Active
SMILES: C#CCNc1ccc(Cn2nc(-c3ccc(CO)o3)c3ccccc32)cc1

GI50 (ACHN): 74.1 µM
GI50 (NCI-H522): 17.8 µM
GI50 (MDA-MB-231): 25.1 µM
GI50 (A549): 66.1 µM
GI50 (SK-OV-3): 53.7 µM
IC50 [1]: 0.1 µM
GI50 (HCT-116): 58.9 µM
GI50 (HT-29): > 100 µM
GI50 (MCF7): 38 µM
GI50 (NCI-H460): 41.7 µM
GI50 (NCI-H226): 0.0513 µM
GI50 (U-251): 95.5 µM
GI50 (DU-145): > 100 µM
GI50 (PC-3): 43.7 µM
GI50 (NCI-H23): > 100 µM
SMILES: OCc1ccc(-c2nn(Cc3c(F)cccc3F)c3ccccc23)o1
GI50 [11]: > 100 µM
GI50 [12]: 41.7 µM
GI50 [13]: 75.9 µM
GI50 [14]: 41.7 µM
GI50 [15]: > 100 µM
GI50 [16]: 24.5 µM
GI50 [17]: 72.4 µM
GI50 [18]: > 100 µM
GI50 [19]: 24 µM
GI50 [20]: > 100 µM
GI50 [21]: 50.1 µM
GI50 [22]: > 100 µM
GI50 [23]: 77.6 µM
GI50 (KM12): 79.4 µM
GI50 [24]: 30.2 µM
inhibition (Mus musculus [2]): inactive
GI50 [25]: 49 µM
GI50 (SNB-75): > 100 µM
GI50 (SF-268): > 100 µM
GI50 [26]: 29.5 µM
GI50 [27]: 36.3 µM
GI50 (St-4): > 100 µM
GI50 [28]: 51.3 µM
inhibition (Mus musculus [29]): Active
GI50 [30]: > 100 µM
GI50 [31]: > 100 µM
GI50 [3]: 0.0447 µM

IC50 [1]: 0.46 µM
SMILES: OCc1ccc(-c2nn(Cc3cccnc3)c3ccccc23)o1

IC50 [1]: 0.3 µM
SMILES: OCc1ccc(-c2nn(Cc3ccccn3)c3ccccc23)o1

IC50 [1]: 0.26 µM
SMILES: OCc1ccc(-c2nn(Cc3ccccc3F)c3ccccc23)o1

IC50 [1]: 0.27 µM
SMILES: N#Cc1ccc(Cn2nc(-c3ccc(CO)o3)c3ccccc32)cc1

IC50 [1]: 0.65 µM
SMILES: OCc1ccc(-c2nn(Cc3ccccc3Cl)c3ccccc23)o1

IC50 [1]: 0.07 µM
SMILES: OCc1ccc(-c2nn(Cc3c(F)c(F)cc(F)c3F)c3ccccc23)o1
inhibition (Mus musculus [2]): inactive

IC50 [1]: 0.31 µM
SMILES: OCc1ccc(-c2nn(Cc3ccc(F)cc3F)c3ccccc23)o1

IC50 [1]: 0.83 µM
SMILES: OCc1ccc(-c2nn(Cc3ccncc3)c3ccccc23)o1

IC50 [1]: 0.7 µM
SMILES: [N-]=[N+]=NCc1ccc(Cn2nc(-c3ccc(CO)o3)c3ccccc32)cc1

Source: ChEMBL document CHEMBL3217535, “Synthesis and biological activity of furanylindazoles as inhibitors of hypoxia inducible factor (HIF)-1 transcriptional activity” (Medchemcomm, 2012)
